The values below come from the METLIN SMRT retention time set (Domingo-Almenara et al. 2019).

A short description of the data set: gradient 5% acetonitrile 3 min, to 50% in 2 min, to 85% in 15 min, held 3 min, 100 µL/min. As to conditions: column: Zorbax Extend-C18 2.1 x 50 mm; eluents: water / acetonitrile, 0.1% formic acid. The gist of the method:
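The system's dead and dwell volumes were 40 μL and 900 μL, with a Zorbax Extend-C18 column (2.1 × 50 mm, 1.8 μm) run at 100 μL/min in water and acetonitrile containing 0.1% formic acid each. Pure standards were analyzed in mixtures of ~100 molecules by HPLC–quadrupole time-of-flight mass spectrometry in positive and negative ionization mode. Retention time was assigned from computationally picked, manually inspected adduct peaks.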
In turn, `COCC(=O)N(CC(=O)N1CCc2sccc2C1COc1ccccc1F)CC(C)C` (centres undefined) returned an RP-LC retention time of 900 s.

Regarding `COC(=O)c1ccc(Cl)cc1NC(=O)NCCc1cn(C)c2ncccc12`, the RP-LC retention time came to 845 s.

`Cc1ccccc1NC(=O)N1CCc2nc(-c3ccccc3)ncc2C1` gave an RP-LC retention time of 817 s.

The compound `CC1CCC(NC(=O)c2nnc(-c3ccc(S(=O)(=O)N4CCCC4)cc3)o2)CC1` (centres undefined) displayed an RP-LC retention time of 1020 s.

Regarding `CCN1C(=O)CCc2cc(NS(=O)(=O)Cc3ccccc3Cl)ccc21`, the RP-LC retention time turned out to be 803 s.

Turning to `CCOc1ccccc1NC(=O)c1c(O)c2cccnc2n(-c2cccc(F)c2)c1=O`, the RP-LC retention time worked out at 1320 s.

`N#CCCSc1ccccc1NC(=O)c1ccc(S(=O)(=O)N2CCOCC2)cc1` showed an RP-LC retention time of 760 s.

In the case of `Cn1cc(-c2cc3n(n2)CCCN3C(=O)CCC(=O)NC2CCCCCC2)c2ccccc21`, the RP-LC retention time is 869 s.

The compound `Cc1ccc(CN2CCN(C3CCN(S(=O)(=O)c4cccc(C)c4)CC3)C(=O)C2=O)cc1` showed an RP-LC retention time of 873 s.

In turn, `O=C(C1CCCC1)N1CCC(CCOc2ccncc2)CC1` had an RP-LC retention time of 616 s.

Turning to `CC1(C(=O)NCc2ccc(F)cc2)CCCN(C(=O)Nc2ccc(F)c(Cl)c2)C1` (centres undefined), the RP-LC retention time turned out to be 972 s.

With `CC(C)(C)C(=O)Nc1ccc(-c2nc(-c3ccccc3)co2)cc1`, the RP-LC retention time turned out to be 1110 s.

`CCCc1ccc(S(=O)(=O)N2CCC(C)(C(=O)NCc3ccc(F)cc3)CC2)cc1` yielded an RP-LC retention time of 1070 s.

For `O=C(NC1CCCCC1)c1nc(-c2cn(-c3ccc(F)cc3)nn2)no1`, the RP-LC retention time was 938 s.

On to `CCOc1ccc(-n2c(=O)c3sccc3n(Cc3nc(-c4ccc(CC)cc4)no3)c2=O)cc1`, for which the RP-LC retention time stood at 1170 s.

Compound `OCC1O[C@H](O)C(Cl)C(O)C1O` (some centres undefined) yielded an RP-LC retention time of 658 s.

In turn, `O=C(NCCc1cccs1)C1CCCN(c2nc3ccsc3c(=O)n2Cc2ccc(F)cc2)C1` (centres undefined) returned an RP-LC retention time of 936 s.

In turn, `CC1=C(C(=O)OC(C)C)C(c2cccc([N+](=O)[O-])c2)C(C(=O)OC2CN(C(c3ccccc3)c3ccccc3)C2)=C(N)N1` (centres undefined) registered an RP-LC retention time of 947 s.

For `COc1ccc(C(C)NC(=O)c2cn3ccc(C)cc3n2)cc1` (centres undefined), the RP-LC retention time was 645 s.

Compound `Cc1nc2c(n1C)CN(C(=O)Cc1c(F)cccc1Cl)CC2` had an RP-LC retention time of 594 s.

In the case of `CCCN1CCN(C(=O)CN2C(=O)C3CCCCN3c3ccc(C(=O)N(C)C)cc32)CC1` (centres undefined), the RP-LC retention time was 602 s.

In turn, `Cc1cccc(NC(=O)CSc2cc(N3CCC(C)CC3)ncn2)c1` gave an RP-LC retention time of 1040 s.

Compound `CCCN1CCN(C(=O)c2ccc3c(c2)Sc2ncccc2C(=O)N3CC)CC1` came in with an RP-LC retention time of 579 s.

With `COC(=O)CCNC(=O)C1c2ccccc2C(=O)N(C2CCCCC2)C12CCCCC2` (centres undefined), the RP-LC retention time is 1010 s.

In turn, `Cc1cccc(-c2nnc(-c3nc(N4CCCCC4C)c4ccccc4n3)o2)c1` (centres undefined) came in with an RP-LC retention time of 1270 s.

Compound `Cc1cccc(N2CCN(C(=O)CN3CCN(Cc4ccccc4)C3=O)CC2)c1` displayed an RP-LC retention time of 853 s.

Compound `Cc1ccc(-n2nc(N3CCCC(C(=O)NCCCc4ccccc4)C3)ccc2=O)cc1Cl` (centres undefined) returned an RP-LC retention time of 1010 s.

`COc1ccc(Nc2ncnc3[nH]ncc23)c(OC)c1`: the RP-LC retention time came to 568 s.

`CC(C)N1C(=O)C(C)(C(=O)NC2CCCCC2)Oc2cccnc21` (centres undefined): the RP-LC retention time came out at 1010 s.

On to `CCN1CCN(CCCNC(=O)Cc2c(C(=O)O)c(C)cn2C)CC1`, for which the RP-LC retention time is 549 s.

On to `CCCNC(=O)C1CCN(S(=O)(=O)c2cc(-c3noc(CC)n3)cs2)CC1`, for which the RP-LC retention time stood at 830 s.

In turn, `CN1C(=O)[C@H]2CN(Cc3cccc(Cl)c3F)C[C@H]2C1=O` registered an RP-LC retention time of 649 s.

As to `COc1ccc(-c2cc3n(n2)CCCN(C(=O)c2cnccn2)C3)cc1`, the RP-LC retention time is 695 s.

For `Cc1ccc(CNC(=O)NCCC2CCN(S(=O)(=O)c3ccccc3)CC2)cc1`, the RP-LC retention time came to 877 s.

As for `Cc1nn(-c2ccc(F)cc2)c2sc(C(=O)NCCc3ccco3)cc12`, the RP-LC retention time was 1060 s.

For `CC(C)n1c(=O)oc2cc(-c3noc(-c4cccc(F)c4)n3)ccc21`, the RP-LC retention time is 1200 s.

Regarding `CC(C)(Oc1ccc(Cl)cc1)C(=O)Nc1c(-c2ccccc2)nc2ccccn12`, the RP-LC retention time was 783 s.

Regarding `O=C1COc2ccc(Cl)cc2N1Cc1nc(-c2ccc3c(c2)OCO3)no1`, the RP-LC retention time was found to be 1040 s.

Take `Fc1ccc(CN2CCC(F)(c3nc(-c4cnccn4)no3)CC2)c(Cl)c1`: the RP-LC retention time is 712 s.

As to `Cn1nc(C(=O)N2CCOCC2)c2c1CCN(C(=O)Nc1ccc(F)cc1F)C2`, the RP-LC retention time is 653 s.

Turning to `O=C(O)c1cccn2c(=O)c3cc(F)ccc3nc12`, the RP-LC retention time came out at 681 s.

Turning to `Cc1ccsc1C(=O)NCCn1c(=O)n(Cc2ccccc2)c2cccnc21`, the RP-LC retention time turned out to be 806 s.

Regarding `Cc1sc(NC(=O)Cn2c(=O)oc3ccccc32)nc1-c1ccc(Cl)cc1`, the RP-LC retention time stood at 1060 s.

In turn, `Cc1nc(-c2ccc(C(=O)N3CCC(C)CC3)cc2)no1` returned an RP-LC retention time of 840 s.

Compound `O=C(Cn1c(=O)c(CCC(=O)NC2CC2)nc2ccccc21)Nc1cc(F)cc(F)c1` came in with an RP-LC retention time of 774 s.

As for `COc1ccc(NC(=O)Cn2cnc3nc(N4CCCC(C(=O)NC5CC5)C4)sc3c2=O)cc1` (centres undefined), the RP-LC retention time was determined as 681 s.

The compound `Cc1cc(=O)n(CC(=O)Nc2ccc(F)cc2F)c(N2CCOCC2)n1` registered an RP-LC retention time of 651 s.

In the case of `Cc1cccc(-c2nnc(-c3cc(S(=O)(=O)N4CCCC4)ccc3Cl)o2)c1`, the RP-LC retention time stood at 1110 s.

The compound `CCCCN(C)C(=O)Cn1ccn2nc(-c3ccc(F)cc3)c(CO)c2c1=O` yielded an RP-LC retention time of 765 s.

Consider `COCCN1C(=O)c2ccccc2C(C(=O)NCCCN2CC(C)CC(C)C2)C1c1cccs1` (centres undefined), for which the RP-LC retention time was 670 s.

The compound `O=C(Cn1nc(N2CCSCC2)c2ccccc2c1=O)Nc1ccccc1F` had an RP-LC retention time of 928 s.

For `CCC1CCCCN1CCNC(=O)C1CCCN(c2cnc3nccnc3c2)C1` (centres undefined), the RP-LC retention time stood at 569 s.

`O=C(Nc1cccnc1)c1ccc(S(=O)(=O)NC2CC2)cc1` showed an RP-LC retention time of 552 s.

The compound `Cc1ccccc1-c1nc(C2CC(=O)N(c3ccc(F)c(Cl)c3)C2)no1` (centres undefined) displayed an RP-LC retention time of 1140 s.

Regarding `Cc1cc(-c2csc(S(=O)(=O)N(Cc3cccs3)C3CCCC3)c2)on1`, the RP-LC retention time was 1190 s.

`Cc1cc2c(c(=O)n(-c3ccc(F)cc3)c(=O)n2CC(=O)Nc2cccc(C#N)c2)n1C`: the RP-LC retention time worked out at 824 s.

Compound `CCC1Oc2ccc(S(=O)(=O)N3CCC(C(=O)Nc4ccccc4F)CC3)cc2NC1=O` (centres undefined) gave an RP-LC retention time of 812 s.

In the case of `CC(C)n1c(=O)c(NCc2ccc(OC(F)(F)F)cc2)nc2ccncc21`, the RP-LC retention time is 733 s.

As to `CC1(C(=O)NCc2ccccc2)CCCN(C(=O)Nc2ccccc2Br)C1` (centres undefined), the RP-LC retention time was found to be 947 s.
